The subject of assay [1] is Staphylococcus aureus MB6266 (MRSA COL). As to the kind of experiment: Nargenicin antibacterial assay (MIC), S. aureus. Type of assay: cell-based. The note with it: Staphylococcus aureus, MRSA, read-out: S. aureus COL (MIC), MHII broth + 50% human serum; * = some reduction of growth versus control at […].
Assay [2] concerns the target T1, E. coli DnaE (DNA polymerase III α-subunit from Escherichia coli) (Escherichia coli, UniProt P10443).
T1 construct: EcDnaE (E. coli DnaE residues 1-1160); 6xHis (N); made in house; host or cells: E. coli BL21(DE3)
Briefly: In vitro DnaE single enzyme assay (E. coli). It is filed as biochemical. Summed up: (§1)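 His-tagged E. coli DnaE (residues 1-1160, 0.8 μg/ml) or S. aureus DnaE (residues 1-1065, 0.05 μg/ml) incubated 30 min at 30° C. with activated calf thymus DNA, 0.025 mM dATP/dGTP/dCTP and 0.011 mM 3H-dTTP in Tris pH 7.5/Mg acetate. TCA-precipitated labelled DNA counted.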

Assay [3] has as its target T2, S. aureus DnaE (DNA polymerase III α-subunit homolog from Staphylococcus aureus) (Staphylococcus aureus, UniProt Q5HF71).
T2 construct: SaDnaE (S. aureus DnaE residues 1-1065); 6xHis (N); made in house; host or cells: E. coli BL21-AI
T2 sequence (Q5HF71 1-1065): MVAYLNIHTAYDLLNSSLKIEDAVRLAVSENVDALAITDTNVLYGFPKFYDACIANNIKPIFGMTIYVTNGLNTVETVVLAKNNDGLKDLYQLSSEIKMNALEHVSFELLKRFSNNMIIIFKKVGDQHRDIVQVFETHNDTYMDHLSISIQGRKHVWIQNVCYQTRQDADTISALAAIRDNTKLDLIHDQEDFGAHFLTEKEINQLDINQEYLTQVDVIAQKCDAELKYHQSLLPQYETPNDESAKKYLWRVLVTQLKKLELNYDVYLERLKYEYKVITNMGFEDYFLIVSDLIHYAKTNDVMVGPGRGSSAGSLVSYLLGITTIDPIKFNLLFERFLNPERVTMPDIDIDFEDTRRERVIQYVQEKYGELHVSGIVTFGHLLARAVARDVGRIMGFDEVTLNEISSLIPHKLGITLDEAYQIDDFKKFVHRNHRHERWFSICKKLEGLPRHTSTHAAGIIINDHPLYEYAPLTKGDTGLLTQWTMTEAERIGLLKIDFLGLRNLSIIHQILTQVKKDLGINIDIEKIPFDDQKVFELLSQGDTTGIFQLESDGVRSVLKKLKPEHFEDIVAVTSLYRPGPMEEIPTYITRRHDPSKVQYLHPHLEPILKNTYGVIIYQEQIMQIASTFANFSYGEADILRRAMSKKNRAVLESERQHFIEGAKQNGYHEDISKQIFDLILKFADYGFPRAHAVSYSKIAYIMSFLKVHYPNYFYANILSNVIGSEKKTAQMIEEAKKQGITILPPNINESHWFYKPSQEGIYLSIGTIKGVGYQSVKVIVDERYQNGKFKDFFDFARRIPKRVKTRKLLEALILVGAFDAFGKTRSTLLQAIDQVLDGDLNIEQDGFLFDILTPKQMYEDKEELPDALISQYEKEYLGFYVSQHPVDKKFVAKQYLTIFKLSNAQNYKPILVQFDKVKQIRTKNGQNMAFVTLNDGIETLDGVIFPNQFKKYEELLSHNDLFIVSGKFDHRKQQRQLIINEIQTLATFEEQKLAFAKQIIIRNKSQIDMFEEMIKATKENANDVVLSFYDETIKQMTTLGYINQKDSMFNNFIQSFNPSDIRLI
As to the kind of experiment: biochemical. It is filed as biochemical. Summed up:
as §1

Assay [4] relates to Escherichia coli MB5747 (LS 883, tolC). Briefly: microbe, parasite or virus in culture. The note with it: Escherichia coli, read-out: E. coli LS883 tolC (MIC), MHII broth; * = some reduction of growth versus control at […]. Type of assay: cell-based.
In assay [5] the test system is Streptococcus pneumoniae MB6357 (CL 2883). Briefly: Nargenicin antibacterial assay (MIC), S. pneumoniae. It is filed as cell-based. The note with it: Streptococcus pneumoniae, read-out: S. pneumoniae MB2883 (MIC), Isosensitest broth; * = some reduction of growth versus control at […].
Assay [6] concerns Pseudomonas aeruginosa MB5890 (CB1101, efflux-deleted). As to the kind of experiment: microbe, parasite or virus in culture. It is filed as cell-based. To be noted: Pseudomonas aeruginosa, read-out: P. aeruginosa MB5890 efflux-del (MIC), MHII broth; * = some reduction of growth versus control at […].
The mark [7] stands for this setting: read-out: E. coli DnaE IC50 (converted).
Where [8] appears, read: read-out: S. aureus DnaE IC50 (converted).

SMILES strings stand for the structures. Converted amounts (≈) assume the structure as drawn. Where two headings read alike, the source gives them in different places.

From patent publication US9944654B2, “Nargenicin compounds and uses thereof as antibacterial agents” (priority 2014, dated 2018) come the findings set out here.

T1 sequence (P10443 whole entry, the tested form may be a part): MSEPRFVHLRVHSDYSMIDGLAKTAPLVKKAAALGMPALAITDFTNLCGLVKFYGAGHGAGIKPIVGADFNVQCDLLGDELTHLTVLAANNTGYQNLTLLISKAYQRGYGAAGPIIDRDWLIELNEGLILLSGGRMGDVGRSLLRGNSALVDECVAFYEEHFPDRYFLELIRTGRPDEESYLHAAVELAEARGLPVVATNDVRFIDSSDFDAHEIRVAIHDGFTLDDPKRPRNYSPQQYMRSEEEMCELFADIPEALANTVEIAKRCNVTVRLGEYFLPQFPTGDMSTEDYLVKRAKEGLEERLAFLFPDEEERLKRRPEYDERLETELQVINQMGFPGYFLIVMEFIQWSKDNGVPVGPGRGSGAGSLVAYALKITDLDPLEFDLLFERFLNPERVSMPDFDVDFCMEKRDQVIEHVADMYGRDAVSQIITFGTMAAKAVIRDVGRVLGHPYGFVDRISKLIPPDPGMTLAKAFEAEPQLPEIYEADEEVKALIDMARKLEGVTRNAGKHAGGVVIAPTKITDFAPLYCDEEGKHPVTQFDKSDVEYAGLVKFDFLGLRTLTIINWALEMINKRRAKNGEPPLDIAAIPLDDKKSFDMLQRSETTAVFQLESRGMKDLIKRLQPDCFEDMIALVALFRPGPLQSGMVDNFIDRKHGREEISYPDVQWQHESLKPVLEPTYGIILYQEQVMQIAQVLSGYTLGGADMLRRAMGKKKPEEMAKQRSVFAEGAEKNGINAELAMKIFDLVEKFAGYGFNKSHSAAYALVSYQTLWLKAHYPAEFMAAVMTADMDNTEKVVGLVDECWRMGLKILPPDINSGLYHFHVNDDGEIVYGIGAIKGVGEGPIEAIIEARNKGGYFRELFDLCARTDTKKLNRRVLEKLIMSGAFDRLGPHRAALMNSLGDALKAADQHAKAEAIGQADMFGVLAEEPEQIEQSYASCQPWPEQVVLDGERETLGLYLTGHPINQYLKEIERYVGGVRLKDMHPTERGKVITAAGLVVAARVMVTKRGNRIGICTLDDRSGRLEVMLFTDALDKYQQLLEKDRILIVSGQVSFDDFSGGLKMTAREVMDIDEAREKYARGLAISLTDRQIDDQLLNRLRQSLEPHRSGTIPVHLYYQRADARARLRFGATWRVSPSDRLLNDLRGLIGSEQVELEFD

On to `CO[C@H]1CC2C=C[C@H]3[C@H]4O[C@]2(/C(C)=C/[C@@H](C)[C@@H]([C@@H](C)OC(=O)C[n+]2ccc(C(N)=O)cc2)OC1=O)[C@@H]3[C@H](O)[C@@H](C)[C@H]4OC(=O)c1ccc[nH]1` (stereo partly drawn) [Example 70], for which the MIC in assay [1] is 0.5 µg/mL; in assay [4], 0.5 µg/mL; in assay [5], greater than 128 µg/mL; in assay [6], 16 µg/mL. For the same compound, the IC50 was 13.3 µM in assay [2] (setting [7]) and less than 0.00884 µM in assay [3] (S. aureus DnaE IC50).

In the case of `CO[C@H]1CC2C=C[C@H]3[C@H]4O[C@]2(/C(C)=C/[C@@H](C)[C@@H](C(C)OC(C)=O)OC1=O)[C@@H]3[C@H](O)[C@@H](C)[C@H]4OC(=O)c1ccc[nH]1` (stereo partly drawn) [Example 57], the MIC is 8 µg/mL in assay [1], 4 µg/mL (≈ 7.17 µM) in assay [4], 64 µg/mL (≈ 115 µM) in assay [5] and greater than 128 µg/mL in assay [6]. The IC50 is 80.7 µM in assay [2] (setting [7]) and less than 0.0108 µM in assay [3] (S. aureus DnaE IC50).

Take `CO[C@H]1C[C@H]2C(=O)C[C@H]3[C@H]4O[C@]2(/C(C)=C/[C@@H](C)[C@@H]([C@@H](C)O)OC1=O)[C@@H]3[C@H](O)[C@@H](C)[C@H]4OC(=O)c1ccc[nH]1` [Example 182]: the MIC in assay [1] is 32 µg/mL; in assay [4] it was 8 µg/mL (≈ 15 µM); in assay [5], greater than 128 µg/mL; in assay [6], 32 µg/mL (≈ 60.2 µM). The 50% inhibitory concentration (IC50) in assay [2] (setting [7]) is greater than 188 µM; in assay [3] (S. aureus DnaE IC50) it was 0.0376 µM.

With `CO[C@H]1C[C@H]2C=C[C@H]3[C@H]4O[C@]2(/C(C)=C/[C@@H](C)[C@@H]([C@@H](C)O)OC1=O)[C@@H]3[C@H](O)C(C)[C@@H]4NCCN1CCCCC1.O=C(O)C(F)(F)F` (stereo partly drawn) [Example 156], the MIC in assay [1], in assay [4], in assay [5] and in assay [6] was greater than 128 µg/mL throughout. For the same compound, the values for the IC50 in assay [2] (E. coli DnaE IC50) and in assay [3] (setting [8]) were greater than 155 µM and 32.5 µM, respectively.

Consider `CO[C@H]1C[C@H]2C=CC3C4[C@H](O)[C@@H](C)[C@@H](OC(=O)c5ccc[nH]5)[C@@H]3O[C@]42/C(C)=C/[C@@H](C)[C@@H]([C@@H](C)OC(=O)C(=O)OCc2ccncc2)OC1=O.O=C(O)C(F)(F)F` [Example 69], for which the MIC in assay [1] is 2 µg/mL; in assay [4] it was 1 µg/mL; in assay [5], greater than 128 µg/mL; in assay [6], 32 µg/mL. Further, the IC50 was 6.31 µM in assay [2] (setting [7]) and less than 0.00757 µM in assay [3] (S. aureus DnaE IC50).

Take `CO[C@H]1C[C@H]2C=C[C@H]3[C@H]4O[C@]2(/C(C)=C/[C@@H](C)[C@@H]([C@@H](C)OC(=O)NCc2ccc(O)c(O)c2)OC1=O)[C@@H]3[C@H](O)[C@@H](C)[C@H]4OC(=O)c1ccc[nH]1` [Example 17]: the MIC in assay [1] was 8 µg/mL; in assay [4], 8 µg/mL (≈ 11.8 µM); in assay [5], greater than 128 µg/mL; in assay [6] it was greater than 128 µg/mL. The values for the IC50 in assay [2] (setting [7]) and in assay [3] (S. aureus DnaE IC50) were 22 µM and less than 0.00881 µM, respectively.

Consider `CO[C@H]1C[C@H]2C=C[C@H]3[C@H]4O[C@]2(/C(C)=C/[C@@H](C)[C@@H]([C@@H](C)O)OC1=O)[C@@H]3[C@H](O)C(C)[C@@H]4NCc1cccs1.O=C(O)C(F)(F)F` (stereo partly drawn) [Example 153], for which the MIC in assay [1], in assay [4], in assay [5] and in assay [6] was greater than 128 µg/mL each time. Also, the IC50 was greater than 158 µM in assay [2] (E. coli DnaE IC50) and 47.5 µM in assay [3] (setting [8]).

For `CO[C@H]1C[C@H]2C=C[C@H]3[C@H]4O[C@]2(/C(C)=C/[C@@H](C)[C@@H]([C@@H](C)O)OC1=O)[C@@H]3[C@H](O)[C@@H](C)[C@H]4OC(C)=O` [Example 186], the MIC is 8 µg/mL in assay [1], 4 µg/mL (≈ 8.61 µM) in assay [4], greater than 128 µg/mL in assay [5] and 16 µg/mL (≈ 34.4 µM) in assay [6]. For the same compound, the figures for the IC50 in assay [2] (setting [7]) and in assay [3] (S. aureus DnaE IC50) were 64.6 µM and roughly 0.00969 µM, respectively.

With `CO[C@H]1CC2C=C[C@H]3[C@H]4O[C@]2(/C(C)=C/[C@@H](C)[C@@H]([C@@H](C)OC(=O)NCC(N)=O)OC1=O)[C@@H]3[C@H](O)[C@@H](C)[C@H]4OC(=O)c1ccc[nH]1` (stereo partly drawn) [Example 16], the MIC in assay [1] is 32 µg/mL; in assay [4] it was 4 µg/mL (≈ 6.5 µM); in assay [5], greater than 128 µg/mL; in assay [6], 128 µg/mL (≈ 208 µM). Further, the IC50 in assay [2] (E. coli DnaE IC50) is 97.5 µM; in assay [3] (setting [8]), less than 0.00975 µM.

Regarding `C=CC[C@H]1OC(=O)[C@@H](OC)C[C@H]2C=C[C@H]3[C@H]4O[C@]2(/C(C)=C/[C@H]1C)[C@@H]3[C@H](O)[C@@H](C)[C@H]4OC(=O)c1ccc[nH]1` [Example 55], the MIC is 2 µg/mL in assay [1], 2 µg/mL (≈ 3.91 µM) in assay [4], greater than 64 µg/mL in assay [5] and 32 µg/mL (≈ 62.5 µM) in assay [6]. Moreover, the IC50 in assay [2] (setting [7]) was 11.7 µM; in assay [3] (S. aureus DnaE IC50) it was less than 0.0117 µM.

As to `CO[C@H]1CC2C=C[C@H]3[C@H]4O[C@]2(/C(C)=C/[C@@H](C)[C@@H]([C@@H](C)O)OC1=O)[C@@H]3[C@H](OC(=O)NS(=O)(=O)c1ccccc1)[C@@H](C)[C@H]4OC(=O)c1ccc[nH]1` (stereo partly drawn) [Example 40, (3R,4S,7S,10aR,11R,12R,13R,14R,14aS,14bS,E)-4-((R)-1-hydroxyethyl)-7-methoxy-1,3,13-trimethyl-6-oxo-14-(((phenylsulfonyl)carbamoyl)oxy)-3,4,6,7,8,8a,10a,11,12,13,14,14a-dodecahydro-11,14b-epoxynaphtho[2,1-e]oxecin-12-yl 1H-pyrrole-2-carboxylate], the MIC in assay [1], in assay [4], in assay [5] and in assay [6] was greater than 128 µg/mL throughout. In addition, the results for the IC50 in assay [2] (setting [7]) and in assay [3] (S. aureus DnaE IC50) were greater than 143 µM and 1.57 µM, respectively.

Take `CO[C@H]1C[C@H]2C=C[C@H]3[C@H]4O[C@]2(/C(C)=C/[C@@H](C)[C@@H]([C@@H](C)O)OC1=O)[C@@H]3[C@H](O)[C@@H](C)[C@@H]4N` [Example 151, (3R,4S,7S,8aS,10aR,11R,12S,13S,14R,14aS,14bS,E)-12-amino-14-hydroxy-4-((R)-1-hydroxyethyl)-7-methoxy-1,3,13-trimethyl-3,4,8,8a,10a,11,12,13,14,14 a-decahydro-11,14b-epoxynaphtho [2,1-e]oxecin-6(7H)-one]: the MIC in assay [1], in assay [4], in assay [5] and in assay [6] was greater than 128 µg/mL in each case. Also, the figures for the IC50 in assay [2] (E. coli DnaE IC50) and in assay [3] (S. aureus DnaE IC50) were greater than 237 µM and 4.98 µM, respectively.

In the case of `CCCNC(=O)O[C@@H]1[C@@H](C)[C@@H](OC(=O)c2ccc[nH]2)[C@@H]2O[C@@]34/C(C)=C/[C@@H](C)[C@@H]([C@@H](C)OC(=O)NCCC)OC(=O)[C@@H](OC)C[C@H]3C=C[C@@H]2[C@@H]14` [Example 3], the MIC is greater than 8 µg/mL in assay [1], greater than 8 µg/mL in assay [4], greater than 128 µg/mL in assay [5] and greater than 128 µg/mL in assay [6]. For the same compound, the IC50 in assay [2] (setting [7]) was 30.6 µM; in assay [3] (S. aureus DnaE IC50) it was greater than 146 µM.
